Reference: ChEMBL document CHEMBL4229513, “Decoy peptides derived from the extracellular domain of toll-like receptor 2 (TLR2) show anti-inflammatory properties” (Bioorg Med Chem, 2018)
One block for each molecule: values may come before it. Activity calls are given as the source filed them. The rule behind the calls is not given here.

Assays:
Type in all cases: cell-based
[1] = target: T1, Toll-like receptor 1/2 (Mus musculus) (UniProt Q9QUN7+Q9EPQ1); test: Antagonist activity at TLR2/TLR1 in mouse BMDM assessed as inhibition of Rhodamine-labeled Pam3CSK4-stimulated receptor internalization at 1 uM preincubated for 1 hr followed by Rhodamine-Pam3CSK4 stimulation for 20 mins by FACS analysis
[2] = target: T2, Toll-like receptor 1/2 (Homo sapiens, UniProt O60603+Q15399); test: Antagonist activity at FLAG-tagged human TLR2/TLR1 expressed in HEK293 cells assessed as inhibition of Pam3CSK4-stimulated MAPK p38 phosphorylation at Thr180/Tyr182 residues at 25 uM preincubated for 1 hr followed by Pam3CSK4 stimulation for 35 mins by immunoblot analysis
[3] = target: T2, Toll-like receptor 1/2; test: Antagonist activity at FLAG-tagged human TLR2/TLR1 expressed in HEK293 cells assessed as inhibition of Pam3CSK4-stimulated JNK phosphorylation at Thr183/Tyr185 residues at 25 uM preincubated for 1 hr followed by Pam3CSK4 stimulation for 35 mins by immunoblot analysis
[4] = target: T2, Toll-like receptor 1/2; test: Antagonist activity at FLAG-tagged human TLR2/TLR1 expressed in HEK293 cells co-expressing pGL3-Elam.luc assessed as inhibition of Pam3CSK4-stimulated NF-kappaB activation at 50 uM preincubated for 1 hr followed by Pam3CSK4 stimulation for 5 hrs by luciferase reporter gene assay relative to control
[5] = system: HEK293; test: Cytotoxicity against HEK293 cells at 100 uM after overnight incubation by CCK8 assay; conditions: human, hek293, 100 µM
[6] = target: TLR2/TLR6 (Homo sapiens) (UniProt O60603+Q9Y2C9); test: Antagonist activity at FLAG-tagged human TLR2/TLR6 expressed in HEK293 cells co-expressing pGL3-Elam.luc assessed as inhibition of Pam2CSK4-stimulated NF-kappaB activation preincubated for 1 hr followed by Pam2CSK4 stimulation for 5 hrs by luciferase reporter gene assay
[7] = target: T1, Toll-like receptor 1/2 (Mus musculus); test: Antagonist activity at TLR2/TLR1 in mouse BMDM assessed as Rhodamine-labeled Pam3CSK4-stimulated receptor internalization at 50 uM preincubated for 1 hr followed by Rhodamine-Pam3CSK4 stimulation for 20 mins by FACS analysis relative to control; design: scale not given: the % may be the effect or the level left
[8] = target: T1, Toll-like receptor 1/2 (Mus musculus); test: Antagonist activity at TLR2/TLR1 in mouse BMDM assessed as inhibition of Pam3CSK4-stimulated TNFalpha production by measuring TNFalpha level at 25 uM preincubated for 1 hr followed by Pam3CSK4 stimulation for 11 hrs by ELISA relative to control; design: scale not given: the % may be the effect or the level left
[9] = target: T2, Toll-like receptor 1/2; test: Antagonist activity at FLAG-tagged human TLR2/YFP-tagged TLR1 expressed in HEK293 cells assessed as inhibition of Pam3CSK4-stimulated TLR1/TLR2 heterodimerization at 25 uM preincubated for 1 hr followed by Pam3CSK4 stimulation for 15 mins by immunoblot analysis
[10] = target: T2, Toll-like receptor 1/2; test: Antagonist activity at FLAG-tagged human TLR2/TLR1 expressed in HEK293 cells co-expressing pGL3-Elam.luc assessed as inhibition of Pam3CSK4-stimulated NF-kappaB activation preincubated for 1 hr followed by Pam3CSK4 stimulation for 5 hrs by luciferase reporter gene assay
[11] = target: T2, Toll-like receptor 1/2; test: Antagonist activity at TLR2/TLR1 in human THP1 cells assessed as inhibition of Pam3CSK4-stimulated non-canonical NF-kB pathway by measuring reduction in p52 level at 50 uM preincubated for 1 hr followed by Pam3CSK4 stimulation for 2 hrs by immunoblot analysis
[12] = target: T2, Toll-like receptor 1/2; test: Antagonist activity at TLR2/TLR1 in human PBMC assessed as inhibition of Pam3CSK4-stimulated IL-10 production by measuring IL-10 level at 100 uM preincubated with cells followed by overnight Pam3CSK4 stimulation by ELISA (reference value: 794 pg/ml)
[13] = target: TLR7 and TLR8 (Mus musculus) (UniProt P58681+P58682); test: Antagonist activity at TLR7/TLR8 in mouse BMDM assessed as inhibition of R848-stimulated TNFalpha production at 25 uM preincubated for 1 hr followed by R848 stimulation for 11 hrs by ELISA
[14] = system: THP-1; test: Cytotoxicity against human THP1 cells at 100 uM after overnight incubation by CCK8 assay; conditions: thp-1, 100 µM
[15] = target: T2, Toll-like receptor 1/2; test: Antagonist activity at TLR2/TLR1 in human PBMC assessed as inhibition of Pam3CSK4-stimulated TNFalpha production at 50 uM preincubated with cells followed by overnight Pam3CSK4 stimulation by ELISA relative to control
[16] = target: T2, Toll-like receptor 1/2; test: Antagonist activity at FLAG-tagged human TLR2/TLR1 expressed in HEK293 cells co-expressing pGL3-Elam.luc assessed as Pam3CSK4-stimulated NF-kappaB activation at 50 uM preincubated for 1 hr followed by Pam3CSK4 stimulation for 5 hrs by luciferase reporter gene assay relative to control; design: scale not given: the % may be the effect or the level left
[17] = target: T1, Toll-like receptor 1/2 (Mus musculus); test: Antagonist activity at TLR2/TLR1 in mouse BMDM assessed as inhibition of Rhodamine-labeled Pam3CSK4-stimulated receptor internalization at 50 uM preincubated for 1 hr followed by Rhodamine-Pam3CSK4 stimulation for 20 mins by DAPI staining based phase contrast fluorescence microscopic method
[18] = target: T3, Toll-like receptor 4 (Mus musculus) (UniProt Q9QUK6); test: Antagonist activity at TLR4 in mouse BMDM assessed as inhibition of LPS-stimulated TNFalpha production at 25 uM preincubated for 1 hr followed by LPS stimulation for 11 hrs by ELISA
T3 sequence (whole entry): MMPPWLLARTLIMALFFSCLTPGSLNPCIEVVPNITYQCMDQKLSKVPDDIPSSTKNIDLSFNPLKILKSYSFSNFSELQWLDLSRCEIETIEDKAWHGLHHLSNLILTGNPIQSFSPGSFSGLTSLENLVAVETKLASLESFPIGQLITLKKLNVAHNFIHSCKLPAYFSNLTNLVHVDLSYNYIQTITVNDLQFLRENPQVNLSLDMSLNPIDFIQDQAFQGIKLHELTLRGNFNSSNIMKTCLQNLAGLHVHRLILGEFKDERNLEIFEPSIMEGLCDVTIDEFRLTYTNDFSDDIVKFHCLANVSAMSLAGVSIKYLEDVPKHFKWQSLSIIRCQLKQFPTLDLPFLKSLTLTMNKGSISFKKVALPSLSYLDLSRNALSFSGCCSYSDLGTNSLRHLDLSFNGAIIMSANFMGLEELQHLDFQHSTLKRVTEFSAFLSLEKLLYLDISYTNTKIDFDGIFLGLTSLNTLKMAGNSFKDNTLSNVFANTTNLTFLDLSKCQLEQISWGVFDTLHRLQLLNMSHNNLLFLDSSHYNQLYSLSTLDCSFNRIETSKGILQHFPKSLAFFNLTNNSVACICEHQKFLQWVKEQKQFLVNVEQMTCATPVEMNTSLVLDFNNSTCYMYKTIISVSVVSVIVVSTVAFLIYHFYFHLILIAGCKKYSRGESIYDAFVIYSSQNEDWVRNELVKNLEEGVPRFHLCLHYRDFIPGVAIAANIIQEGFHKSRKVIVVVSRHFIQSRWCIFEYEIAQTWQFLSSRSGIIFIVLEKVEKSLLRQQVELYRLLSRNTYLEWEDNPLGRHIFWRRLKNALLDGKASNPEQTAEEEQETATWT

[19] = target: T2, Toll-like receptor 1/2; test: Antagonist activity at FLAG-tagged human TLR2/TLR1 expressed in HEK293 cells assessed as inhibition of Pam3CSK4-stimulated JNK phosphorylation at Thr183/Tyr185 residues at 50 uM preincubated for 1 hr followed by Pam3CSK4 stimulation for 35 mins by immunoblot analysis
[20] = target: T2, Toll-like receptor 1/2; test: Antagonist activity at FLAG-tagged human TLR2/TLR1 expressed in HEK293 cells assessed as inhibition of Pam3CSK4-stimulated IkBalpha degradation at 50 uM preincubated for 1 hr followed by Pam3CSK4 stimulation for 35 mins by immunoblot analysis
[21] = target: T4, Toll-like receptor 3 (Mus musculus) (UniProt Q99MB1); test: Antagonist activity at TLR3 in mouse BMDM assessed as inhibition of poly I:C-stimulated TNFalpha production at 25 uM preincubated for 1 hr followed by poly I:C stimulation for 11 hrs by ELISA
T4 sequence (whole entry): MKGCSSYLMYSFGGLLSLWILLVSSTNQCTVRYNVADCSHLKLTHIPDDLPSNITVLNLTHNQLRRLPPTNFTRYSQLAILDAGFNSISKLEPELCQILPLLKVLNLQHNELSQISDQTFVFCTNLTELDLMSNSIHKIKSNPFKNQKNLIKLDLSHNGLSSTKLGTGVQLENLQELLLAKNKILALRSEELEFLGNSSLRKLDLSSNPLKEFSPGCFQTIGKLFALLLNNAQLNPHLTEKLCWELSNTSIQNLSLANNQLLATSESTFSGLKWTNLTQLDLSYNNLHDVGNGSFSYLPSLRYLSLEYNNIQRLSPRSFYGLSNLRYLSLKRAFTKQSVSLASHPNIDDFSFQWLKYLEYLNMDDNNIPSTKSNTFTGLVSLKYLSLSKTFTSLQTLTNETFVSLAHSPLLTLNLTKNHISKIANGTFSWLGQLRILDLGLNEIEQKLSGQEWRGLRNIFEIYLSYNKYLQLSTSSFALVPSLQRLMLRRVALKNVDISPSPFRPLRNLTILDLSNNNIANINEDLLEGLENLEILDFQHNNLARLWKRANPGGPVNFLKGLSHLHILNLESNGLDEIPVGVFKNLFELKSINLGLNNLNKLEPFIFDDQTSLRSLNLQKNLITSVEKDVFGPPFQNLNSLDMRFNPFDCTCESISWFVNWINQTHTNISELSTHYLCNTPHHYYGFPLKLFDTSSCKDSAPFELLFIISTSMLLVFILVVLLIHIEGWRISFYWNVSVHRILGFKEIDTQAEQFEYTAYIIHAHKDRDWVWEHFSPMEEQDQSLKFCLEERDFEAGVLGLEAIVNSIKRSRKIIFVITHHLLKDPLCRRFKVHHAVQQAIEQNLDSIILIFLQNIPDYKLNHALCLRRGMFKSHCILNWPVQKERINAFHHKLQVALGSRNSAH

[22] = system: BMDM; test: Cytotoxicity against mouse BMDM at 100 uM after overnight incubation by CCK8 assay
[23] = target: T2, Toll-like receptor 1/2; test: Antagonist activity at FLAG-tagged human TLR2/TLR1 expressed in HEK293 cells assessed as inhibition of Pam3CSK4-stimulated MAPK p38 phosphorylation at Thr180/Tyr182 residues at 50 uM preincubated for 1 hr followed by Pam3CSK4 stimulation for 35 mins by immunoblot analysis
[24] = target: T2, Toll-like receptor 1/2; test: Antagonist activity at TLR2/TLR1 in human PBMC assessed as inhibition of Pam3CSK4-stimulated IL-10 production at 100 uM preincubated with cells followed by overnight Pam3CSK4 stimulation by ELISA

T2 sequence (O60603 whole entry): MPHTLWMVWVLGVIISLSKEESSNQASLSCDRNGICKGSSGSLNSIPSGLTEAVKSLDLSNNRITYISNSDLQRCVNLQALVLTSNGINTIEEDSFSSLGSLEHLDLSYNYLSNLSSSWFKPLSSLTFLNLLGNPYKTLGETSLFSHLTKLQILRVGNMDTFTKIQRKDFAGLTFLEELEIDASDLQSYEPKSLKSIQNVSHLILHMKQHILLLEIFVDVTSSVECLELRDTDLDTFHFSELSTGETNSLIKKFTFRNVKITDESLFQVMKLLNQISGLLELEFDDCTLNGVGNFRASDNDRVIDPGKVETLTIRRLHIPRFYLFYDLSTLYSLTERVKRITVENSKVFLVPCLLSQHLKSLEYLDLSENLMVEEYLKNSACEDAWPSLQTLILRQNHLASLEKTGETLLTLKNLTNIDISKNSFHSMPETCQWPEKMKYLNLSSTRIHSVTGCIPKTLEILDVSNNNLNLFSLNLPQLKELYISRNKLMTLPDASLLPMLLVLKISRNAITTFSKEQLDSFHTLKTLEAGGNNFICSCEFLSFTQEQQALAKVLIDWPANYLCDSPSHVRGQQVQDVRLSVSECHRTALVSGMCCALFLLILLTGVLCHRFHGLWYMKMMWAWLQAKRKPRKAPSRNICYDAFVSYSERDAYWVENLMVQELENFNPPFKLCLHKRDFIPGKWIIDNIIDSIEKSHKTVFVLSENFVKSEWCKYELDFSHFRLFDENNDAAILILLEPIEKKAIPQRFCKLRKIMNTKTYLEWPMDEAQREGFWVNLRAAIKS
T2 sequence (Q15399 whole entry): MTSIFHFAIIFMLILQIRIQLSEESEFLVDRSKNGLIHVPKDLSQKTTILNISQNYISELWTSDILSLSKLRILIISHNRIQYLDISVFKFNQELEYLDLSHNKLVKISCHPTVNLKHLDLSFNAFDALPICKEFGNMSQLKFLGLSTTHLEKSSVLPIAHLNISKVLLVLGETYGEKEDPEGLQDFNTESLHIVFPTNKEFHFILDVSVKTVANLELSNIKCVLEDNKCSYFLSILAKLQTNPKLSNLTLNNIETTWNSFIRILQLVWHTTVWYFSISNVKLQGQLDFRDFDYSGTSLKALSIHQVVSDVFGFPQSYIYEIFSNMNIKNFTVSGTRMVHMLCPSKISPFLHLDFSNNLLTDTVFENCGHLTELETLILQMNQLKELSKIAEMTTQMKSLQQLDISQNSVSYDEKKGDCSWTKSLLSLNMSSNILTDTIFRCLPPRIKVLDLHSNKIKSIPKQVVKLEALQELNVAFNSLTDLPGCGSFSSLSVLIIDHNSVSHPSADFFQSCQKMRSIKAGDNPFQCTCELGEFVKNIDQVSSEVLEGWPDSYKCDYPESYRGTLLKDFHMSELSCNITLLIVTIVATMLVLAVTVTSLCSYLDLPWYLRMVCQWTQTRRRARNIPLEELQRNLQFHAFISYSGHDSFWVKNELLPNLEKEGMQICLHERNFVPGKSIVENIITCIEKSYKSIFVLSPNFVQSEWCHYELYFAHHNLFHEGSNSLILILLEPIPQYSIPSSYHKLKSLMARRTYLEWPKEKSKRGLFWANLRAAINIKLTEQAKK
TLR7 and TLR8 (Mus musculus), sequence (P58681 whole entry, looked up): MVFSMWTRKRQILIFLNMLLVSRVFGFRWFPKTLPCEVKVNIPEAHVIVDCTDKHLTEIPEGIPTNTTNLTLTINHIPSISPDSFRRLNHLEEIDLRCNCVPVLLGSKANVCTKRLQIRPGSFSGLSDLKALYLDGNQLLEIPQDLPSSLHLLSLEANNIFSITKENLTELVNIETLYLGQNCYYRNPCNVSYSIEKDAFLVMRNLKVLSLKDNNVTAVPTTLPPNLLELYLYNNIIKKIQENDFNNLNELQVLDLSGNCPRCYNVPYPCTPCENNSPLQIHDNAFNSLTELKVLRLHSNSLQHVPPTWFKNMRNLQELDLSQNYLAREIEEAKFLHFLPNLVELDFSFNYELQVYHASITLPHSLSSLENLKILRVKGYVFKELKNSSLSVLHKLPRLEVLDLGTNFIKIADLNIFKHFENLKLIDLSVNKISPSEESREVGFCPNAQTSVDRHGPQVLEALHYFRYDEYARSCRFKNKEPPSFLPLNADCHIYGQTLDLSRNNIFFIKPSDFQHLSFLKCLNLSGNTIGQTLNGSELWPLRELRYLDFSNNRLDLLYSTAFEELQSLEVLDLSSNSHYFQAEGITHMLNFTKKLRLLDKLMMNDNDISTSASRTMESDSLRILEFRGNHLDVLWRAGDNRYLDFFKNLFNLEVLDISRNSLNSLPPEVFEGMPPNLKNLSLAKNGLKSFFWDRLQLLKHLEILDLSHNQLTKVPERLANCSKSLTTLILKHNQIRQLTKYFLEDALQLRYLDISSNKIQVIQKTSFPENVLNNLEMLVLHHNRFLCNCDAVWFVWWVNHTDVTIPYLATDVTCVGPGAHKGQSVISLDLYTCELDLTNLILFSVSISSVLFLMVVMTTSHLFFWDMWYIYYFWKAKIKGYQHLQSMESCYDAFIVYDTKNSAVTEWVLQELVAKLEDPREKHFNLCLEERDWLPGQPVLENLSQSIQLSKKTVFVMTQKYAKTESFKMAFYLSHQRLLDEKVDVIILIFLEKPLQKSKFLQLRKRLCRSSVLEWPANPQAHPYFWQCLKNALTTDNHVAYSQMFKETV
TLR7 and TLR8 (Mus musculus), sequence (P58682 whole entry, looked up): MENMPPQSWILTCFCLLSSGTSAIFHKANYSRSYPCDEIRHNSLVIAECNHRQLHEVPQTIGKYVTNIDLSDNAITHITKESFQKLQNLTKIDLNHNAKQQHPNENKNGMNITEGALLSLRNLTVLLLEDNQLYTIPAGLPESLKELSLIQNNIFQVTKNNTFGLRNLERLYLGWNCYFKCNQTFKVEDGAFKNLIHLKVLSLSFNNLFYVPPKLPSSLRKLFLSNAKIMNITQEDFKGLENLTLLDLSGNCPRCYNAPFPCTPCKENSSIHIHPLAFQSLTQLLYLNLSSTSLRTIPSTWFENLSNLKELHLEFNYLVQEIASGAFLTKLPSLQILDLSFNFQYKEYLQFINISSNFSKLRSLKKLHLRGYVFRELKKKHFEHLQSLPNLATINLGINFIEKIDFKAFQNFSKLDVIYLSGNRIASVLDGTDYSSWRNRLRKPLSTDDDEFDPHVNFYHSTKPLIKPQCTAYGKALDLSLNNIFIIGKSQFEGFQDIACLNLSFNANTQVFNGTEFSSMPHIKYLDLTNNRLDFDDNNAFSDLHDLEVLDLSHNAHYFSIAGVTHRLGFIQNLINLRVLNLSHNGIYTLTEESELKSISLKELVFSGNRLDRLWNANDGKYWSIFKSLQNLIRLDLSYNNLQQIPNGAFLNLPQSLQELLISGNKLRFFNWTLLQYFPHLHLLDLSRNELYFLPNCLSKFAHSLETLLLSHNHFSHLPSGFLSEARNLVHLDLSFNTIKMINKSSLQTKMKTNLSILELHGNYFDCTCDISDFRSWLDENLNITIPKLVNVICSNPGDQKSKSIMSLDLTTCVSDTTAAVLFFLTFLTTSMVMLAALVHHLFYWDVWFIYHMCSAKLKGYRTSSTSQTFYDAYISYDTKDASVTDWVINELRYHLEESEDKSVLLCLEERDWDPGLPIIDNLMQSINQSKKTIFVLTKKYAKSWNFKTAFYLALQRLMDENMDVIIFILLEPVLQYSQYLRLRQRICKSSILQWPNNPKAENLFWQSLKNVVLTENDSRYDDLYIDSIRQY

inhibition [2]: Active
inhibition [3]: Active
Molecule: Cc1cc(NC(=O)NC(=O)c2ccccc2N(C)C)ccc1Oc1ncc(Br)cn1

inhibition [6]: inactive
Activity [7]: 70.2%
Activity [8]: 80%
inhibition [9]: Active
IC50 [10]: 45.8 µM
inhibition [10]: Dose-dependent effect
inhibition [11]: Active
Activity [12]: 727 pg/mL
inhibition [13]: inactive
inhibition [15]: 50%
Activity [16]: 51%
inhibition [17]: Active
inhibition [18]: inactive
inhibition [19]: Active
inhibition [20]: inactive
inhibition [21]: inactive
inhibition [23]: Active
Molecule: H-ENLMVEEYLK-OH
Activity [5]: Non-Toxic
Activity [14]: Non-Toxic
Activity [22]: Non-Toxic

inhibition [6]: inactive
Activity [7]: 37.4%
Activity [8]: 70%
inhibition [9]: Active
IC50 [10]: 49.2 µM
inhibition [10]: Dose-dependent effect
inhibition [11]: Active
inhibition [13]: inactive
inhibition [15]: 50%
Activity [16]: 51%
inhibition [24]: Active
inhibition [17]: Active
inhibition [18]: inactive
inhibition [19]: Active
inhibition [20]: inactive
inhibition [21]: inactive
inhibition [23]: Active
Molecule: H-HIPRFYLFYD-OH
Activity [5]: Non-Toxic
Activity [14]: Non-Toxic
Activity [22]: Non-Toxic

inhibition [4]: 81.9%
Molecule: H-RLHIPRFYL-OH

inhibition [4]: 56%
Molecule: H-SENLMVEEYLK-OH

inhibition [4]: 84.1%
Molecule: H-TIRRLHIPR-OH

The next lines start with the molecule.

Molecule: C=C1[C@@H](C)[C@H]2[C@H](Cc3ccccc3)NC(=O)[C@]23[C@H](OC(C)=O)/C=C/[C@@](C)(O)C(=O)[C@@H](C)C/C=C/[C@H]3[C@@H]1O
inhibition [1]: Active

Molecule: H-ENLMVEEY-OH
inhibition [4]: 66%

Molecule: H-ENSKVFLVPC-OH
inhibition [4]: Active

Molecule: H-HIPRFYLFY-OH
inhibition [4]: 56%

Molecule: H-LHIPRFYLFYD-OH
inhibition [4]: 56%

Molecule: H-VETLTIRRL-OH
inhibition [4]: 86%

Molecule: H-VVSDVFGFP-OH
inhibition [4]: Active
